Here are results for nine molecules from EPA's ToxValDB 9.5.

≈ marks a conversion by molar mass, not a printed value. Where only a bound is given, the exact number is not on record here.

The subject of one series is Oncorhynchus mykiss. To be noted: for NOEC: chronic/long-term.
A further series has as its system Ovis sp. To be noted: subchronic, oral, diet.
For the next series, the system named is Sus scrofa. The following applies: oral, Not specified.
A further series has as its system Rattus norvegicus. The following applies: for LD50: acute, mortality.
Another series concerns Colinus virginianus. To be noted: for LC50 / LD50: acute, oral; for LC50: diet.
Another series deals with Anas platyrhynchos. The following applies: oral, mortality.
The next series deals with Daphnia magna. To be noted: chronic/long-term; duration: 21 days; reproduction.
For another series, the system named is Pimephales promelas. The following applies: chronic/long-term; duration: 36 days; mortality.
For another series, the system named is Leuciscus idus. To be noted: chronic/long-term; duration: 66 days; mortality.
Another series concerns Gallus gallus. The following applies: repeat dose other; reproduction.
A further series has as its system Bovidae. The following applies: oral, diet.
For the next series, the system named is Typhlodromus pyri. The series can be described thus: LR50; higher = less toxic. The following applies: acute; mortality.
The next series concerns Apis mellifera. The following applies: acute, mortality.
The test system of the next series is Pontoscolex corethrurus. The following applies: chronic/long-term; growth.
For the next series, the system named is Danio rerio. To be noted: acute; duration: 96 hours; mortality.
In the next series the test system is Oryctolagus sp. The following applies: oral, diet.
The next series relates to Meleagris sp. The following applies: subchronic; duration: 12 weeks; oral; feed; no effects.
A further series has as its system Anser anser. The following applies: short-term; duration: 28 days; oral; feed; no effects.
Another series relates to Anatidae. To be noted: short-term; duration: 28 days; oral; feed; no effects.
The subject of the next series is Equus caballus. The following applies: short-term; duration: 21 days; no effects.
The subject of the next series is Mus musculus. The following applies: acute; inhalation; mortality.

One may read the NOAEL as the highest tested level that showed no adverse finding. As to `O=c1[nH]c(=O)[nH]c(=O)[nH]1` [Cyanuric acid], the LEL in the series with Oncorhynchus mykiss (acute, duration: 3 days, oral, capsule, no effects) was 390 mg/kg-day; with Sus scrofa (acute, duration: 3 days, diet, no effects), 400 mg/kg-day. Further, the no-observed-adverse-effect level (NOAEL) in the series on Ovis sp. (duration: 77 days, body weight) was 600 mg/kg-day; in the series with Rattus norvegicus (chronic, duration: 2 years, oral, drinking water, histopathology: nonneoplastic), 154 mg/kg-day.

With `CC[N+](CC)(CC(=O)Nc1c(C)cccc1C)Cc1ccccc1.O=C([O-])c1ccccc1` [Denatonium benzoate], the LC50 in the series with Colinus virginianus (mortality) came out at 778 mg/kg-day; in the series on Anas platyrhynchos (short-term, feed), 842 mg/kg-day. For the same molecule, the LD50 with Colinus virginianus (mortality) is 196 mg/kg. This molecule also returned an NOEC in the series on Daphnia magna of 5 mg/L.

Take `CNC(=O)/C(=N/OC)c1ccccc1COc1cc(C)ccc1C` [Dimoxystrobin]: the NOEC was 10 µg/L in the series on Oncorhynchus mykiss (duration: 28 days, body weight); 1 µg/L in the series on Oncorhynchus mykiss (duration: 97 days, biomass); 16 µg/L in the series with Pimephales promelas; 15 µg/L in the series with Leuciscus idus.

In general, LOAEL refers to the lowest dose or exposure tested at which an adverse effect was seen. Consider `ClC1=C(Cl)C2(Cl)C3C(Cl)C=CC3C1(Cl)C2(Cl)Cl` (stereo unspecified) [Heptachlor], for which the LOAEL in the series on Gallus gallus came to 0.01 mg/kg-day. In addition, in the series with Sus scrofa (subchronic, duration: 78 days, histopathology: nonneoplastic), the LEL was 2 mg/kg-day. The molecule also displayed an NOAEL in the series with Bovidae (subchronic, F) of 6 mg/kg-day.

`OC[C@H]1OC(O[C@H]2[C@H](O)[C@@H](CO)OC(O[C@H]3[C@H](O)[C@@H](CO)OC(O)[C@@H]3O)[C@@H]2O)[C@H](O)[C@@H](O)[C@@H]1O` (stereo partly specified) [Laminaran]: in the series on Typhlodromus pyri, the LR50 is 115 g/ha. The LD50 in the series with Colinus virginianus (mortality) is greater than 1700 mg/kg-day; in the series on Apis mellifera (dermal), greater than 100 µg/piece; in the series on Apis mellifera (oral, unspecified) it was greater than 119 µg/piece; in the series on Rattus norvegicus (oral), greater than 2000 mg/kg-day. Besides, the LEL in the series with Colinus virginianus (chronic, mortality) is greater than 170 mg/kg-day. In the series on Pontoscolex corethrurus, the NOEC turned out to be 262 mg/kg. In the series with Rattus norvegicus (subchronic, duration: 90 days, oral, no effects), this molecule yielded an NOAEL of 1000 mg/kg-day. Besides, in the series on Danio rerio, the LC50 was greater than 71.3 µg/mL.

In turn, `CO[C@@H]1[C@@H](OC)[C@H](C)[C@@](O)(CC(=O)O)O[C@H]1[C@H](C)[C@H]1O[C@@]2(CC[C@@](C)([C@H]3CC[C@@](C)([C@@H]4O[C@@H]([C@H]5O[C@](C)(O)[C@H](C)C[C@@H]5C)C[C@@H]4O[C@@H]4C[C@H](OC)[C@@H](OC)[C@H](C)O4)O3)O2)C[C@H](O)[C@H]1C.N` [Maduramicin ammonium] gave an LOAEL in the series on Oryctolagus sp. (short-term, duration: 2 weeks, mortality) of 0.075 mg/kg-day. Further, the LEL in the series with Ovis sp. (gross pathology) was no less than 2.5 mg/kg-day; with Sus scrofa (repeat dose other, diet, mortality), 37.5 mg/kg-day; in the series with Bovidae (short-term, duration: 28 days, no effects), 0.15 mg/kg-day. Also, the NOAEL in the series with Canidae (acute, duration: 3 hours, M/F, Beagle, no effects) was no less than 0.1 mg/kg-day; with Rattus norvegicus (chronic, duration: 2 years, oral, diet, M/F, organ weight), 0.12 mg/kg-day; with Rattus norvegicus (reproduction developmental, M/F, body weight) it was 0.1 mg/kg-day. For the same molecule, the NOEL in the series with Rattus norvegicus (chronic, duration: 2 years, oral, diet) was 0.16 mg/kg-day.

The molecule `C#CCOc1ccc(CCNC(=O)C(OCC#C)c2ccc(Cl)cc2)cc1OC` (stereo unspecified) [Mandipropamid] returned an LC50 in the series on Colinus virginianus (mortality) greater than 2140 mg/kg-day. Further, the NOEL in the series with Colinus virginianus (reproduction developmental) was found to be 83.6 mg/kg-day; in the series on Rattus norvegicus (chronic, body weight), 20 mg/kg-day. For the same molecule, the no observed adverse effect level (NOAEL) in the series on Canidae (subchronic, duration: 90 days, oral, Dog Other, body weight) was determined as 25 mg/kg-day; in the series on Rattus norvegicus (chronic, duration: 2 years, body weight), 15.2 mg/kg-day. Also, the LD50 in the series on Rattus norvegicus (oral) is greater than 5000 mg/kg-day; in the series with Anas platyrhynchos (acute, unspecified) it was greater than 1000 mg/kg-day.

On to `CO[C@@H]1[C@@H](O)[C@H](C)[C@@](O)(CC(=O)[O-])O[C@H]1[C@H](C)[C@H]1O[C@@]2(CC[C@@](C)([C@H]3CC[C@@](C)([C@@H]4O[C@@H]([C@H]5O[C@](C)(O)[C@H](C)C[C@@H]5C)C[C@@H]4O[C@H]4CC[C@H](OC)[C@@H](C)O4)O3)O2)C[C@H](O)[C@H]1C.[Na+]` [Semduramicin sodium], for which the LEL with Oryctolagus sp. (subchronic, duration: 42 days, M/F, no effects) was determined as 25 mg/kg-day; in the series with Meleagris sp., 25 mg/kg; with Anser anser, 25 mg/kg; with Anatidae, 25 mg/kg; in the series with Equus caballus it was 0.25 mg/kg-day. In addition, the NOAEL with Canidae (chronic, duration: 12 months, Dog Other, histopathology: nonneoplastic) worked out at 0.3 mg/kg-day; in the series on Rattus norvegicus (chronic, duration: 2 years, oral, diet, clinical chemistry), 0.125 mg/kg-day.

As for `O=S(=O)(F)F` [Sulfuryl fluoride], the LC50 came to 1.67 µg/mL (≈ 16.4 µM) with Mus musculus and 0.89 µg/mL (≈ 8.72 µM) with Danio rerio. The NOAEL is 20 mg/kg-day with Rattus norvegicus (chronic, duration: 2 years, histopathology: nonneoplastic) and 100 mg/kg-day in the series on Rattus norvegicus (subchronic, duration: 90 days, inhalation, histopathology: nonneoplastic). The molecule further returned an NOEL in the series with Rattus norvegicus (short-term, duration: 2 days, F, Fischer 344) of 300 mg/kg-day.
